Results from patent publication US8044103B2, “Cyclic dipeptides and azetidinone compounds and their use in treating CNS injury and neurodegenerative disorders” (Georgetown University, priority 1998, dated 2011).

Tests used:
[1] = system: mice following controlled cortical impact injury (CCI); assay: Morris watermaze, place learning version, after controlled cortical impact injury; format: in vivo, Male C57Bl/6 mice
Method: Male C57Bl/6 mice (20-25 g) were obtained from Taconic Farms (Germantown, N.Y.) and housed in an area directly adjoining surgical and behavioral rooms for at least 1 week prior to any procedures. All mice were maintained at a constant temperature (22±2° C.) and a 12 hr light/dark cycle, with lights on at 6 am and all behavioral testing performed during the light cycle. Food and water were available ad libitumn.
Surgical anesthesia was induced and maintained with 4% and 2% isoflurane respectively, using a flow rate of 1.0-1.5 l oxygen per minute. Depth of anesthesia was assessed by monitoring respiration rate and palpebral and pedal-withdrawal reflexes. The animal was then placed onto a heated pad and core body temperature was monitored and maintained at 38+/−0.2° C. The head was mounted in a stereotaxic frame and the surgical site clipped and prepared with a series of three Nolvasan scrubs followed by sterile saline rinses. A 10 mm mid-line incision was made over the skull, the skin and fascia reflected, and a 4 mm craniotomy made on the central aspect of the left parietal bone with a tissue punch (Roboz, USA). Great care was taken with the removal of the parietal bone to avoid injury to the underlying dura mater which was continuously bathed in sterile normal saline warmed to 37.5° C. The impounder tip of the pneumatic injury device was cleaned with a pad, soaked in absolute alcohol, positioned to the surface of the exposed dura and automatically withdrawn the 44 mm stroke distance. Following injury at a moderate (6.0 m/s velocity, 1 mm tissue deformation depth) level, the incision was closed with interrupted 6-0 silk sutures, anaesthesia was discontinued and the mouse was placed into a heated cage to maintain normothermia for 45 minutes post-injury. All animals were monitored carefully for at least 4 hours post-surgery and then daily. To minimize variation between animals due to anaesthesia during acute neurological testing, 20 minutes was allowed for surgery and 5 minutes for suturing for each animal.
[…] The values for n represents the number of mice in the particular treatment group. The investigator was blinded to drug treatment both at the time of surgery and for neurological and behavioral scoring.
The Morris watermaze (Morris, 1984, J. Neurosci. Meth. 22:47-60) is employed to assess spatial learning by training mice to locate a hidden, submerged platform using extramaze visual information. The apparatus consists of a large, white circular pool (900 mm diameter, 500 mm high, water temperature 24±1° C.) with a plexiglass platform 76 mm diameter painted white and submerged 15 mm below the surface of water (225 mm high) which is rendered opaque with the addition of dilute, white, non-toxic paint. During training, the platform is hidden in one quadrant 14 cm from the side wall. The mouse is gently placed into the water facing the wall at one of four randomly-chosen locations separated by 90 degrees. The latency to find the hidden platform within a 90 second criterion time is recorded by a blinded observer. […]
Continuous variables compared across groups are examined using an analysis of variance (ANOVA) followed by Bonferroni correction (acute reflexes). Continuous variables subjected to repeated measurements over a period of time (beam walking, Morris water maze) are analyzed using a repeated measurements ANOVA followed by Tukey's pairwise comparison at each time point. […]

[2] = system: mice following controlled cortical impact injury (CCI); assay: Morris watermaze, working memory version, after controlled cortical impact injury; format: in vivo, Male C57Bl/6 mice; conditions: 1.0 mg/kg at 30 min following CCI; day 24 after trauma; p<0.05
Method: FIG. 7 provides a graph illustrating the latency of finding a hidden platform in a working memory version of the Morris watermaze for uninjured control mice (sham+saline) and mice treated with normal saline (CCI+saline) or 1.0 mg/kg Compound 2a (CCI+Compound 2a) at 30 min. following controlled cortical injury (CCI). Filled bars (▪) represent the first of two consecutive trials; unfilled bars ( ? ) represent the second of two consecutive trials. Results are expressed as daily means±SEM for each group over four trial pairs. * indicates p<0.05 with respect to uninjured controls (sham+saline); # indicates p<0.05 with respect to injured saline-treated controls (CCI+saline).
Conscious mice were placed in a mouse restrainer and injected via the lateral tail vein with either normal saline (injured controls; n=6), 1 mg/kg Compound 2a (n=8), Compound 10b (n=6), Compound 11b (n=6) or Compound 14c (n=6) at 30 minutes following controlled cortical impact injury (CCI). The values for n represents the number of mice in the particular treatment group. The investigator was blinded to drug treatment both at the time of surgery and for neurological and behavioral scoring.
To determine the effect of CCI on working memory, the daily mean latency (+SEM) to find the goal platform on both trials was calculated for each group. […]

For `O=C1NC2(CCCCC2)C(=O)N2CCC[C@@H]12` [Compound 2a, Cyclo[(1-Amino-1-Cyclohexane-Carboxylic Acid)-Pro]], the “latency to find hidden platform (place learning) versus sham-operated controls, day 8” value ([1]; 1.0 mg/kg at 30 min following CCI, day 8, p<0.001) was “significantly different from sham-operated controls”, the “latency to find hidden platform (place learning) versus sham-operated controls, day 9” value ([1]; 1.0 mg/kg at 30 min following CCI, day 9 (third day of training), p>0.05, out-performing saline-treated) was “no longer significantly different from sham-operated controls” and the “latency to find goal platform (place learning) versus saline-treated injured mice, last day of training” value ([1]; 1.0 mg/kg at 30 min following CCI, day 10, p<0.01) was “significantly improved latencies”. For the same compound, the “place-learning compared with saline-treated controls (CCI+saline), dose-response experiments” value ([1]; 0.1, 1.0 or 10.0 mg/kg at 60 min following CCI, 10 days post-surgery, all treatment groups) was “improved place-learning”, the “dose giving the most improved learning (place learning watermaze)” value ([1]; 0.1, 1.0 or 10.0 mg/kg at 60 min following CCI, by 10 days post-surgery) was 10 mg/kg and the “latency to goal platform, first of trial pair (reference memory), versus untreated injured animals” value [2] was “significantly improved”. For the same compound, the “latency to goal platform, second of trial pair (working memory), versus untreated injured animals” value [2] was “significantly improved”.
